How the values were obtained:
[1] = Respiratory depression by blood gas (pCO2) monitoring in rats; assay type: in vivo; conditions: male, Wistar Hannover, in vivo; rat, intravenous
Procedure: (§1) Analgesia was assayed in rats using the tail pinch test with simultaneous monitoring of capillary blood gases (pCO2). During this testing period respiratory depression values were also obtained. Male rats (Wistar Hannover 200-300 g) were anesthetized with 2% isoflurane (J. A. Webster, Inc., Sterling, Mass. The femoral artery was cannulated with PE50 tubing for blood sampling. The external jugular vein was also cannulated with Silastic tubing for drug injection. After surgery, anesthetic gases were removed and the rat was allowed to rest in a plastic restrainer for 60 minutes to establish baseline values of blood gases.
(§2) The compounds 1-6 were administered intravenous. Nociceptive response and respiratory values were obtained for a 1-2 hour period. The femoral artery cannulation was used to draw arterial blood into a syringe pre-wetted with heparin. Samples were then analyzed with a blood gas analyzer (Ph/Gas Analyzer Synthesis 25 Model, Instrumentation Laboratory) to assess respiratory depression effects. The volume of blood taken each time was 0.15 cc. The syringes were capped immediately and the blood gases analyzed within 5 minutes. The blood exposed to air at the tip of the syringe was expelled. The blood was mixed by gentle inversion and an aliquots of 0.10 cc was injected into the blood gas analyzer.
(§3) The gas analyzer was well maintained and operated. Calibrations (low, normal and high) were done at the beginning of every day of testing. The sample lines, co-oximeter and the blood gas electrode were cleaned regularly at the end of every day of testing. Hematocrit calibration (high and low) was scheduled on a weekly basis and tubing, sample and pinch valve were replaced on a monthly basis.
(§4) The ED50 values for analgesia potency and respiratory depression were determined to calculate the safety or therapeutic ratio, which is defined as the respiratory depression ED50 divided by analgesia ED50.

rats = test: as above; assay type: in vivo; conditions: rat; for Respiratory Depression % Units Baseline pCO2: 0.30 mg/kg i.v.
Procedure: as §1, §2, §3, §4

[2] = biological target: T1, Delta receptor, mouse vas deferens (Mus musculus, UniProt P32300); test: Mouse vas deferens, inhibition of electrically induced contractions, delta; assay type: cell-based; conditions: read-out: Mouse Vas Deferens ED50 (nM) δ
T1 construct: Mouse vasa deferentia (MVD), CD-1 strain, Harlan, Raleigh, N.C.) were removed from mice; tissue Harlan, Raleigh, N.C; (animals); host or cells: mouse vas deferens, CD-1 strain
Procedure: The compound of formula (I) and compounds 1, 3, 4, 5 and 6 as identified above, were evaluated for in vitro opioid receptor activity in various receptor systems, including mouse vas deferens (Mouse Vas Deferens ED50), and guinea pig ileum (Guinea Pig Ileum ED50). The assay procedures used for such determinations of receptor activity are set out below.
In vitro bioassays: Mouse vasa deferentia (MVD), CD-1 strain, Harlan, Raleigh, N.C.) were removed from mice and suspended between platinum electrodes with 0.5 g of tension in organ bath chambers containing a modified Mg^++ free Krebs buffer of the following composition (millimolar): NaCl, 117.5; KCl, 4.75; CaCl2, 2.6; KH2PO4, 1.20; NaHCO3, 24.5; and glucose, 11. The buffer was saturated with 95% O2/5% CO2 and kept at 37° C. Tissues were stimulated at supramaximal voltage with 10-Hz pulse trains for 400-msec.; train interval 10 seconds; and 1.0 msec pulse duration at maximal voltage. Delta receptor activity was determined by adding appropriate concentrations of test compound to organ baths and allowing a maximal response before addition of the next higher concentration.
The ED50 values were extrapolated from curves showing the dose concentration plotted against the response (J. A. H. Lord, A. A. Waterfield, J. Hughes, H. W. Kosterlitz, Nature 267, 495, (1977)).

T1 sequence (P32300 whole entry): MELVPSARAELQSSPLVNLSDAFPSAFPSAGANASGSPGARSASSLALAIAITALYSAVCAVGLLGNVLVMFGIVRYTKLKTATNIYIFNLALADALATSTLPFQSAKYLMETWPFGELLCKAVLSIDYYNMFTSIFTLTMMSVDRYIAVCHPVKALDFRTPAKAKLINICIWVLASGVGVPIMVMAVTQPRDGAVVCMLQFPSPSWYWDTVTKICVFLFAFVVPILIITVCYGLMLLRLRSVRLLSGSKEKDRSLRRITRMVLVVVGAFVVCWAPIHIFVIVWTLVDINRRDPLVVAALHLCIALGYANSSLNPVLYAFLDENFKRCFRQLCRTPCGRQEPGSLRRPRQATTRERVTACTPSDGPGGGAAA

C=CCN1C[C@H](C)N([C@H](c2ccsc2)c2cccc(O)c2)C[C@H]1C [Compound 2, (−)3-((S)-((2S,5R)-4-allyl-2,5-dimethyl-1-piperazinyl)(3-thienyl)methyl)phenol]
ED50 [1]: 0.72 mg/kg
Respiratory Depression % Units Baseline pCO2 (rats; 4 min.): 48%
Respiratory Depression % Units Baseline pCO2 (rats; 8 min.): 34%
Respiratory Depression % Units Baseline pCO2 (rats; 32 min.): 17%
Mortality due to respiratory depression (rats; i.v.): without lethal respiratory depression
Safety Ratio (respiratory depression ED50 divided by analgesia ED50) (rats; intravenous): 15.7
Safety ratio, times greater than any of the other enantiomeric compounds tested (rats; intravenous): at least six times greater
Safety ratio, times greater than either of the racemic mixtures (rats; intravenous): ≥ 3 times
EC50 [2]: 14.2 nM

Source: US6924288B2, “Enantiomerically pure opioid diarylmethylpiperzine and methods of using same” (priority 2001, dated 2005)
